Values joined by “and” are separate entries in the source; they are usually repeats but may differ in a detail not shown here. Identical values can stand only once.
Key:
[1] = Metabolic stability in mouse hepatic microsomes with NADPH-generating system; assay type: in vitro ADME; details: pH 7.4; for half-life at 1 μM: mouse liver microsomes 0.5 mg/mL, 1 μM compound, 37°C; for microsomal CLint at 1 μM: calculated from in vitro half-life, mouse liver microsomes
Protocol: Metabolic reactions were initiated by the addition of a NADPH regenerating system (NADP, glucose-6-phosphate, glucose-6-phosphate dehydrogenase, final glucose-6-phosphate dehydrogenase concentration, 1 unit/mL). Aliquots were removed (0, 5, 10, 30, and 60 min) and immediately mixed with an equal volume of cold acetonitrile containing internal standard. Test compound incubated with microsomes without NADPH regenerating system for 60 min was included. […] The column used was a Phenomenex Gemini C-18 (250 × 4.6 mm, 5 μm particle size). The samples were isocratically eluted using CH3CN/ammonium formate (20 mM, pH 5.5) 7:3 (v/v) as mobile phase. […] Liver microsomes provide the most convenient way to study cytochrome P450 enzyme-mediated metabolism.

[2] = test system: mGluR-LTD in CA1 pyramidal neurons of hippocampal slices (native 5-HT7 receptors); test: Patch clamp: reversal of DHPG-induced mGluR-LTD of EPSCs in CA1 pyramidal neurons, hippocampal slices from Fmr1 KO mice; assay type: cell-based; details: Fmr1 KO (C57BL6J) slices, 5 min; for EPSC amplitude: compound 10 nM, applied after DHPG (100 μM, 5 min)
Protocol: (§1) Patch clamp experiments were performed on mouse hippocampal slices from wild-type (wt) mice (FVB and C57BL/6J background) and Fmr1 KO2 mice (C57BL/6J background, kindly provided by Prof. Willemsen, Erasmus MC, Rotterdam, The Netherlands). […] Every care was taken to maximally reduce the number of animals and to minimize discomfort.
(§2) Acute hippocampal slices ([…]) were cut with a vibratome (Leica VT 1200). Slices were continually perfused with oxygenated ACSF. After 3 h of recovery, one slice was placed in the recording chamber of a patch camp set up and viewed with infrared microscopy (Leica DMLFS). A tungsten electrode was placed in the stratum radiatum to stimulate Schaffer collaterals with negative current pulses (duration 0.3 ms, delivered every 15 s by A310 Accupulser, WPI, USA). Evoked AMPA receptor-mediated excitatory post-synaptic currents (EPSCs) were recorded from CA1 pyramidal neurons under whole-cell patch clamp (holding potential -70 mV; EPC7-plus amplifier HEKA, Germany). Stimulation intensity was set to induce half-maximal EPSC amplitude. Series resistance (Rs) was monitored throughout the recording by means of 10 mV hyperpolarizing pulses; recordings were discarded from analysis if Rs changed by more than 20%. EPSC traces were filtered at 3 kHz and digitized at 10 kHz. Data were acquired and analyzed using Signal software (CED, England). The recording micropipette (resistance 1.5–3 MΩ) was filled with intracellular solution (in mM: K-gluconate 140; HEPES 10; NaCl 10; MgCl2 2; EGTA 0.2; Mg-ATP 3.5; Na-GTP 1; pH 7.3).
(§3) Cumulative histograms indicate % EPSC amplitude (mean ± SEM from groups of neurons) after application of DHPG alone (control LTD) or DHPG followed by a 5-HT7 receptor agonist. EPSC amplitude values from two groups of neurons were compared using the Student's t-test, with n indicating the number of neurons tested in each condition.

[3] = test system: mGluR-LTD in CA1 pyramidal neurons of hippocampal slices (native 5-HT7 receptors); test: Patch clamp: reversal of DHPG-induced mGluR-LTD of EPSCs in CA1 pyramidal neurons, hippocampal slices from wild-type mice; assay type: cell-based; details: 5 min, measured 45 min after DHPG; for EPSC amplitude: compound 10 nM
Protocol: as §1, §2, §3

[4] = parameters: method as in Leopoldo et al., 2008; details: mice, intraperitoneal injection; ref Leopoldo et al., 2008; cited from earlier work
[5] = target: T1, 5-HT1A receptors (Homo sapiens, UniProt P08908); test: Binding affinity for 5-HT1A receptors
T1 sequence (P08908 1-422): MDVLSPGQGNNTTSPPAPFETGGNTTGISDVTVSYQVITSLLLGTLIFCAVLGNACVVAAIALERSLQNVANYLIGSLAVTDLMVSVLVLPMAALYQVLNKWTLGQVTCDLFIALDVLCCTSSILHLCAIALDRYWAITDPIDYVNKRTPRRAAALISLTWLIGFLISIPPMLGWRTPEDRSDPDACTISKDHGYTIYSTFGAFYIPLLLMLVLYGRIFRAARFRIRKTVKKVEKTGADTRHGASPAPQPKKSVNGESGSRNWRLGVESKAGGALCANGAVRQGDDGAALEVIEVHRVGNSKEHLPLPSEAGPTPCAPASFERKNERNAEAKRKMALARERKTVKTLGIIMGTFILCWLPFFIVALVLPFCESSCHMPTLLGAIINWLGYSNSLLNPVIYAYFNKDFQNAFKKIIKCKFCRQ
Excerpt: Table 1 Binding Affinity Data and Pharmacokinetic Parameters of Test Compounds. | column: 5-HT1AKi [nM]

[6] = target: T2, P-glycoprotein (P-gp) (Homo sapiens, UniProt P08183); test: Efflux ratio (BA/AB) in Caco-2 cells monolayer; assay type: in vitro ADME; details: efflux ratio basal-to-apical / apical-to-basal, Caco-2 monolayer, cutoff 3 for P-gp substrate
T2 construct: fluxes in Caco-2 cells monolayer; endogenous in cells; host or cells: Caco-2 cells
T2 sequence (P08183 whole entry): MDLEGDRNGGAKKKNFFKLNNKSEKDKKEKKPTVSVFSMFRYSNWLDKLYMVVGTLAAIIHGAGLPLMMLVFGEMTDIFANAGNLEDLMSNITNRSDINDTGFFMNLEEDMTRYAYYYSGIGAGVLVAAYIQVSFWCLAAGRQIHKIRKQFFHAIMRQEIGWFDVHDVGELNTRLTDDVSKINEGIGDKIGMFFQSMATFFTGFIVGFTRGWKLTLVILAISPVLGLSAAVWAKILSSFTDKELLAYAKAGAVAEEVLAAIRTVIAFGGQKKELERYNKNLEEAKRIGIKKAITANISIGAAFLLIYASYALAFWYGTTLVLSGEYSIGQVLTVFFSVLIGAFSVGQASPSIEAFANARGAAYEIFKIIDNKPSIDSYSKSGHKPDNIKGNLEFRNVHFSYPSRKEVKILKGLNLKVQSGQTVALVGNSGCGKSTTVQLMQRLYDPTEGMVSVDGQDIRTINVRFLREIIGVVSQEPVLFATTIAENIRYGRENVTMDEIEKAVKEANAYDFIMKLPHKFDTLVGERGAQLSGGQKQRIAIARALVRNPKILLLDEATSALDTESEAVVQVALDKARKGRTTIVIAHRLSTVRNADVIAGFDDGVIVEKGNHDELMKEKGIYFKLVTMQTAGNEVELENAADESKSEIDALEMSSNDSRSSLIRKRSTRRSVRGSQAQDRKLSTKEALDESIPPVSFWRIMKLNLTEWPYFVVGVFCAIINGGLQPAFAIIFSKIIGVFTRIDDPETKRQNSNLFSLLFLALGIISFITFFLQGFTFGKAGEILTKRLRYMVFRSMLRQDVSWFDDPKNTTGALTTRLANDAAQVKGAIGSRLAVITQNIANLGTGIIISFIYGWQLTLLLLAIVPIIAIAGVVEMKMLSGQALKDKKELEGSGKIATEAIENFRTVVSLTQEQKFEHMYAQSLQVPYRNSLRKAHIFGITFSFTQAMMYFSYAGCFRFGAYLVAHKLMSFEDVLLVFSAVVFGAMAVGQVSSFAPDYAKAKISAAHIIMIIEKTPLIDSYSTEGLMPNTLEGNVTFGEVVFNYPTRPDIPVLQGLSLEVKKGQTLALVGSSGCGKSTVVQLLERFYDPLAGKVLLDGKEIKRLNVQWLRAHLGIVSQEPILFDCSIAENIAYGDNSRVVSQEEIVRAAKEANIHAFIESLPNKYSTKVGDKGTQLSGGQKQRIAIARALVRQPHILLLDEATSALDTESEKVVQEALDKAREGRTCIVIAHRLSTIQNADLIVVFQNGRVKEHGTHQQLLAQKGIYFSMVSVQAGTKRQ
Excerpt: This system is an in vitro model to evaluate the interaction of small molecules with P-glycoprotein (P-gp), an efflux pump localized on the blood-brain barrier that prevents xenobiotics to enter the brain. Therefore, a centrally acting drug should not be a P-gp substrate.

[7] = target: 5-HT7 receptors (Homo sapiens, UniProt P34969); test: Radioligand binding affinity for 5-HT7 receptors
Chain of 5-HT7 receptors (P34969 whole entry): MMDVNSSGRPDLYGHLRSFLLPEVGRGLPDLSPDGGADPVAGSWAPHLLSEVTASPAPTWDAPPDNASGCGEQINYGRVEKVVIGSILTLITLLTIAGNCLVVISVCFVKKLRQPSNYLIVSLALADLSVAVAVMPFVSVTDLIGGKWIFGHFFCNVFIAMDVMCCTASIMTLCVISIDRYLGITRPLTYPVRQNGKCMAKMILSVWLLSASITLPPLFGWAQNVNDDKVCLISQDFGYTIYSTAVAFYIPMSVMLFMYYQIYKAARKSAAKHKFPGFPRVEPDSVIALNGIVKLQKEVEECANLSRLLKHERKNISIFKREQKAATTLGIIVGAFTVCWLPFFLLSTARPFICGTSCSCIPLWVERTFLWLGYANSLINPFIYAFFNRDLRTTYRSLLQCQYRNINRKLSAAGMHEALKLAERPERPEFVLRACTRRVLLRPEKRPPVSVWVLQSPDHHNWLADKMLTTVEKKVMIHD

[8] = wt FVB slices, applied after DHPG (100 μM, 5 min)

Structure (SMILES)	half-life at 1 μM [1]	microsomal CLint at 1 μM [1]	Ki [5]	EPSC amplitude [3, 8]	other results
COc1ccc(-c2ccccc2N2CCN(C[C@@H](O)COc3cnccn3)CC2)cc1 [BA-10, (R)-1-[4-[2-(4-methoxyphenyl)phenyl]piperazin-1-yl]-3-(2-pyrazinyloxy)-2-propanol]	14.8 min	96 µL/min/mg			
N[C@H](C(=O)O)c1cc(O)cc(O)c1 [DHPG, S-3,5-DHPG]					EPSC amplitude after DHPG alone (mGluR-LTD) ([2]; DHPG 100 μM, measured 45 min after DHPG): 56 ± 5 % of control and 56 ± 12 % of control; EPSC amplitude after DHPG alone (mGluR-LTD) ([3]; wt C57BL/6J slices, DHPG 100 μM): 74.4 ± 9.8 % of control
N#Cc1ccc(CNC(=O)CCCCCN2CCN(c3ccccc3-c3ccccc3)CC2)cc1 [LP-211, N-(4-cyanophenylmethyl)-4-(2-diphenyl)-1-piperazinehexanamide, reference compound]	10.6 min	131 µL/min/mg	0.188 µM		in vivo half-life [4]: 65 min; EPSC amplitude ([2]; 45 min after DHPG): 78 ± 5 % of control; EPSC amplitude ([2]; 55 min after DHPG): 97 ± 3 % of control; EPSC amplitude ([3]; wt C57BL/6J slices, applied 5 min after DHPG (100 μM, 5 min)): 99.4 ± 1.5 % of control
COc1ccc(-c2ccccc2N2CCN(CCCCCC(=O)NCc3ccc(F)nc3)CC2)cc1 [PF-62, N-(2-fluoropyridin-5-ylmethyl)-4-[2-(4-methoxy)phenyl]-1-piperazinehexanamide]	6.7 min	205 µL/min/mg	0.152 µM		efflux ratio [6]: 4.2; Ki [7]: 0.00382 µM
COc1ccc(-c2ccccc2N2CCNCC2)cc1 [PM-20, 1-[2-(4-methoxyphenyl)phenyl]piperazine]				60 ± 7 % of control	
c1ccc(-c2ccccc2N2CCNCC2)cc1 [RA-7, 1-(2-biphenyl)piperazine]				64 ± 7 % of control	
